{"source": "paper PMC8619046", "about": "“ABCB1 and ABCG2 Control Brain Accumulation and Intestinal Disposition of the Novel ROS1/TRK/ALK Inhibitor Repotrectinib, While OATP1A/1B, ABCG2, and CYP3A Limit Its Oral Availability” (Pharmaceutics, 2021)", "key": {"[1]": {"tested_on": "T1, human ABCB1", "T1 construct": "expressed in transfected cells; host or cells: MDCK-II cells stably transduced with hABCB1 cDNA (made in the authors' institute)", "assay": "Transepithelial transport, MDCK-II cells transduced with hABCB1", "format": "in vitro ADME", "conditions": "MDCK-MDR1, pH 7.4, with zosuquidar 5 µM, MDCK-II hABCB1, 5 µM, + zosuquidar 5 µM, read-out: efflux transport ratio r", "excerpt": "(§1) Polarized Madin-Darby Canine Kidney (MDCK-II) cells (ECACC 00062107) stably transduced with either human (h) ABCB1, hABCG2 or mouse (m) Abcg2 cDNA were generated in our institute between 1995–2005. The proper identity and functionality, such as highly characteristic growth and drug transporter properties, including inhibitor sensitivity, were regularly checked in these epithelial cells. Mycoplasma routinely tested negative in these cells. The passage number was 10–15 when used in the transport experiments.\n(§2) Transepithelial transport experiments were performed as previously described with 12-well plates (Transwell 3414, Corning Inc., Kennebunk, ME, USA) containing microporous polycarbonate membrane filters (3.0 µm pore size, 12 mm diameter). […]\n(§3) After pre-incubation with 5 µM zosuquidar (ABCB1 inhibitor) and/or 5 µM Ko143 (ABCG2/Abcg2 inhibitor) in both compartments (when appropriate) for 1 h, the transport phase was initiated (t = 0) by replacing the medium in apical and basolateral compartments with fresh DMEM with 10% FBS and the appropriate inhibitor(s), and repotrectinib at 5 µM in the donor compartment. […] The active transport ratio r, calculated by dividing the amount of apically directed drug transport by basolaterally directed drug translocation after 8 h, was used to assess active transport of repotrectinib."}, "[2]": {"biological_target": "T2, human ABCB1 (Homo sapiens, UniProt P08183)", "T2 construct": "expressed in transfected cells; host or cells: MDCK-II cells stably transduced with hABCB1 cDNA (made in the authors' institute)", "T2 sequence (P08183 whole entry)": "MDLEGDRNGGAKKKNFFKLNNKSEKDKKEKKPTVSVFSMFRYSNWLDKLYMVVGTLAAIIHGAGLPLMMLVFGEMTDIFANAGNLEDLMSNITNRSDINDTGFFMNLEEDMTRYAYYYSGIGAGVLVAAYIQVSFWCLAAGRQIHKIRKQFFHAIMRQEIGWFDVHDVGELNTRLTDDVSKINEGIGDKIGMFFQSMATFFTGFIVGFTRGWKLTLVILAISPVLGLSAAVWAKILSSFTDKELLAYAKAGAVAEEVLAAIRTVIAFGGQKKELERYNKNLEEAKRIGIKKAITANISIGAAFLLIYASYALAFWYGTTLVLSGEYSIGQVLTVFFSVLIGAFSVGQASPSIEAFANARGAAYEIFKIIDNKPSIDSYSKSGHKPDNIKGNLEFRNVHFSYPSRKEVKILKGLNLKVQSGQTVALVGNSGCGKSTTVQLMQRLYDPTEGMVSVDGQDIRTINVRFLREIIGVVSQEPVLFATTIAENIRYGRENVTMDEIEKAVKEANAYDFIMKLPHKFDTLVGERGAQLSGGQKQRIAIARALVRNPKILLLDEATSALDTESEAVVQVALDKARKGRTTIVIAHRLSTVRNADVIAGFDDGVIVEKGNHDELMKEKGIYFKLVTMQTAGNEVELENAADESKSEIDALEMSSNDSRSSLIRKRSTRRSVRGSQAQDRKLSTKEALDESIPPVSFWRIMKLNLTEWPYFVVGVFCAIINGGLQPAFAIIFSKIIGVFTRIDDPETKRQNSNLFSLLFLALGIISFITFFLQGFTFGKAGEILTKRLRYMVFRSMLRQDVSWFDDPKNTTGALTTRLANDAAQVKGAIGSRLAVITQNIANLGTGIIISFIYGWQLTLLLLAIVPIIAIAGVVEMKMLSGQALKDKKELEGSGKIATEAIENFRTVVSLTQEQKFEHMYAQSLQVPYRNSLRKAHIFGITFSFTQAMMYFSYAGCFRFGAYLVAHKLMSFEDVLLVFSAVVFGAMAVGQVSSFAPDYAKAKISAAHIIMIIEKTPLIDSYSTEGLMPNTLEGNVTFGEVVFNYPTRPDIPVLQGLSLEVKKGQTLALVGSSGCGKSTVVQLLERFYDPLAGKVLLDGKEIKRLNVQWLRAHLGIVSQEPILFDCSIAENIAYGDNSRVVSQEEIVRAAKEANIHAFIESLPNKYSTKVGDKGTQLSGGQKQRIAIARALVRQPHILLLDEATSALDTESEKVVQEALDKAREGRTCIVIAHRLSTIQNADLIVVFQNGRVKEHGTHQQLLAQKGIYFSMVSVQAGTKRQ", "assay": "Transepithelial transport, MDCK-II cells transduced with hABCB1", "format": "in vitro ADME", "conditions": "MDCK-MDR1, pH 7.4, MDCK-II hABCB1, 5 µM, no inhibitor, read-out: efflux transport ratio r", "excerpt": "as §1, §2, §3"}, "[3]": {"tested_on": "ROS1-positive advanced NSCLC", "conditions": "cited from earlier work; for confirmed objective response rate (ORR): preliminary TRIDENT-1 data"}}, "note": "Read-outs that look alike come from different tables or passages of the source.", "data": [{"smiles": "C[C@H]1CNC(=O)c2cnn3ccc(nc23)N[C@H](C)c2cc(F)ccc2O1", "note": "[repotrectinib]", "values": [{"measurement": "efflux ratio at 8 h, 5 µM", "setting": "[1]", "result": 1.1}, {"measurement": "efflux ratio at 8 h, 5 µM", "setting": "[2]", "result": 13.5}, {"measurement": "confirmed objective response rate (ORR)", "setting": "[3]; TKI-naïve ROS1 + NSCLC patients", "result": 86, "unit": "%"}, {"measurement": "confirmed objective response rate (ORR)", "setting": "[3]; TKI-pretreated patients", "result": 50, "unit": "%"}, {"measurement": "treatment-related adverse events, severity", "setting": "[3]; majority of events, manageable", "result": "grade 1 or grade 2"}, {"measurement": "most common adverse effect", "setting": "[3]; on-going phase I clinical trial (NCT03063116)", "result": "dizziness"}, {"measurement": "patients with prominent clinical activity", "setting": "[3]; patients who had disease progression on prior TRK inhibitors", "result": 50, "unit": "%"}]}]}
